Our source for the mel/lung ratio values is patent US7321027B2, “Small technetium-99m and rhenium labeled agents and methods for imaging tumors” (President and Fellows of Harvard College, priority 2000, dated 2008).

The subject of the series is B16/F0 murine melanoma. Description: In-vivo tumor uptake and biodistribution. The arrangement: species or system C57B16 mice. Particulars: mouse, in vivo. The gist of the method: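 C57B16 mice bearing subcutaneous B16/F0 hind-flank tumours (3–5 mm, 10–14 days after 0.5×10^6 cells) received 25 to 30 μCi ^99mTc-complex by tail vein. Organs and tumour were harvested at 1 h and 6 h, gamma-counted against injected-dose standards; expressed as % ID/g, with melanoma/nontumor ratios.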

The structures appear in SMILES notation.

In the case of `CCCCN(CCCC)CCN1CC[S][99Tc]2(=[O])[S]CC[N]2C(=O)C1` (stereo not shown) [Tc-(Compound B)], the mel/lung ratio is given as 2.1.
